Like-named read-outs stand apart in the source and are kept apart here.
Key:
Assay in all cases: PTP IC50 assay, fluorescent substrate DiFMUP
Assay type in all cases: biochemical
PTP SHP2 = target: T1, PTP SHP2 (Homo sapiens, UniProt Q06124)
T1 construct: The catalytic domain was amplified using the following oligonucleotides; made in house; host or cells: Sf-9 insect cells (pFastBac-G2T)
T1 sequence (Q06124 247-517 limits assumed): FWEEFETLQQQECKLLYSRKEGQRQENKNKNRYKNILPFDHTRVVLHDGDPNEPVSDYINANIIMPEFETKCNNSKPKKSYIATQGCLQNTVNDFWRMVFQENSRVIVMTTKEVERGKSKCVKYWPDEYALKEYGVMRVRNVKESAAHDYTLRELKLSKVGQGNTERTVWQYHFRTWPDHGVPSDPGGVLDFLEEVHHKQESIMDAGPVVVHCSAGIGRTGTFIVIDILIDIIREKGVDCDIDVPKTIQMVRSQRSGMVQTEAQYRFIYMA
From the text: SHP-2 cDNA was used as described earlier (Vogel W., et al.,1993, Science, 259:1611-4). The catalytic domain was amplified using the following oligonucleotides 5′oligo: 5′-[…]-3′ (SEQ ID NO: 2) 3′oligo: 5′-[…]-3′ (SEQ ID NO: 3) and subsequently subcloned into BamH1-Xba-1 sites. It was then ligated into pfas Bac-G2T BamH1-Xba-1 sites.
(§1) The following in vitro assay procedure is preferred to determine the level of activity and effect of the different compounds of the present invention on one or more of the PTPs. Similar assays can be designed along the same lines for any PTP using techniques well known in the art.
(§2) The catalytic assays described herein are performed in a 96-well format. The general procedure begins with the determination of PTP optimal pH using a three-component buffer system that minimizes ionic strength variations across a wide range of buffer pH. Next, the Michaelis-Menten constant, or Km, is determined for the substrate 6,8-difluoro-4-methylumbelliferyl phosphate (DiFMUP). This Km value is subsequently used as the substrate reaction concentration for compound screening. Finally, the test PTP is exposed to varying concentrations of compound for fifteen minutes and allowed to react with substrate for ten minutes. The results are plotted as percent inhibition versus compound concentration and the IC50 interpolated from the plot.
(§3) All assays were performed using DiFMUP as substrate. The optimum pH and substrate Km was determined for each PTP used.
(§4) PTPase activity was assayed at 25° C. in a 100-μl reaction mixture containing an appropriate concentration of DiFMUP as substrate. The reaction was initiated by addition of the purified PTP and quenched after 10 min by addition of 1% H2O2/100 mM NaCl. The non-enzymatic hydrolysis of the substrate was corrected by measuring the control without the addition of the enzyme. The amount of DiFMU produced was determined from the increase in the fluorescence (360 nm excitation/460 nm emission) over that of background in the absence of PTPase. To determine the kinetic parameter, Km, the initial velocities were measured at various substrate concentrations and the data were fitted to the Michaelis equation where velocity=(Vmax*[S])/(Km+[S]), and [S]=substrate reaction concentration.
(§5) The effect of the compounds on PTP was evaluated at 25° C. using DiFMUP as substrate. PTP was pre-incubated for fifteen minutes with various concentrations of compound. Substrate was then added at a fixed concentration (usually equal to the Km previously calculated). After 10 minutes, the reaction was quenched. The hydrolysis of DiFMUP was followed as described above. The percent inhibition was calculated as follows: Percent Inhibition=[(control signal−compound signal)/control signal]×100%. The IC50 was then determined by interpolation of a percent inhibition versus compound concentration plot.
(§6) Plasmids designed for bacterial GST-PTP fusion protein expression were derived by insertion of PCR-generated human PTP fragments into pGEX vectors (Pharmacia Biotech). Several of these constructs were then used to subclone phosphatases into pFastBac-1 for expression in Sf-9 insect cells. Oligonucleotides used for the initial amplification of PTP genes are as described above. The cDNAs were prepared using the Gilbo BRL superscript preamplification system on RNAs purchased from Clontech.

PTP 1B = target: T2, PTP 1B (Homo sapiens, UniProt P18031)
T2 construct: made in house; host or cells: Sf-9 insect cells (pFastBac-G2T)
T2 sequence (P18031 1-435): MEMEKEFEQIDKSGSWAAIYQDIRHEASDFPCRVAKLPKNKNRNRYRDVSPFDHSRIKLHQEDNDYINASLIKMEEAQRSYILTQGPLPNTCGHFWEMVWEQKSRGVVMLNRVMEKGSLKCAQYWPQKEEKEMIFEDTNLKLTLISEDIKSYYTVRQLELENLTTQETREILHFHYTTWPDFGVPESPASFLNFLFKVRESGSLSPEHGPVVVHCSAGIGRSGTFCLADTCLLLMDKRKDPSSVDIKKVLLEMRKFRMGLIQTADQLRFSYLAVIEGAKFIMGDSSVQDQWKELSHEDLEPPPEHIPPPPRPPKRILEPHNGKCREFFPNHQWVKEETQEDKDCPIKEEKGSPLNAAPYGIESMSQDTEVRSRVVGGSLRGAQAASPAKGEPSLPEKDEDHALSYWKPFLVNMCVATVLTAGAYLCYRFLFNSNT
From the text: The PTP1b cDNA was amplified from human placenta single strand cDNA (Clontech RNA) using the following oligonucleotides: 5′oligo: 5′-[…] (SEQ ID NO: 4) 3′oligo: 5′-[…] (SEQ ID NO: 5) It was subsequently ligated into pFasBac G2TBamH1Xba-1 sites.
as §1, §2, §3, §4, §5, §6

PTP EPSILON = target: T3, PTP EPSILON (Homo sapiens, UniProt P23469)
T3 construct: made in house; host or cells: Sf-9 insect cells (pFastBac-G2T); a pGEX 6P-1 construct also existed
T3 sequence (P23469 80-393 limits assumed): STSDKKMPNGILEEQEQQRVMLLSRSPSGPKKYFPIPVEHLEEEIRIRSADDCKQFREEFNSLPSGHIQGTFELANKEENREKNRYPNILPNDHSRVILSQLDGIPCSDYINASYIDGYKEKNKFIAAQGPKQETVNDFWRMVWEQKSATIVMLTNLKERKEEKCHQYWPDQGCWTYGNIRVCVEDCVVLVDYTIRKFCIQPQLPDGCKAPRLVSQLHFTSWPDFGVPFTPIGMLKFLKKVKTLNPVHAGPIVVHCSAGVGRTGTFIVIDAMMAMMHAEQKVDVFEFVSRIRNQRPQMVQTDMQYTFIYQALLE
From the text: The PTPepsilon cDNA was amplified from human placenta single-strand cDNA (Clontech RNA) using the following oligonucleotides: 5′oligo: 5′-[…]-3′ (SEQ ID NO: 6) 3′oligo: 5′-[…]-3′ (SEQ ID NO: 7) After cloning this PCR product into the Bam HI/Xho I sites of pGEX 6P-1, this phosphatase was subcloned using the same restriction sites in pFastBac-G2T.
as §1, §2, §3, §4, §5, §6

[1] = DiFMUP as substrate, 25° C., read-out: PTP IC50 SHP2
[2] = DiFMUP as substrate, 25° C., read-out: PTP IC50 1B
[3] = DiFMUP as substrate, 25° C., read-out: PTP IC50 Epilson

SMILES | IC50 (PTP SHP2; [1]) [µM] | IC50 (PTP 1B; [2]) [µM] | IC50 (PTP EPSILON; [3]) [µM] | IC50 (PTP SHP2) [µM] | IC50 (PTP 1B) [µM] | IC50 (PTP EPSILON) [µM]
CCOC(=O)c1cc2cc(NS(=O)(=O)C(F)(F)F)ccc2n1CC1CCCCC1 [Example 101, 1-Cyclohexylmethyl-5-trifluoromethanesulfonylamino-1H-indole-2-carboxylic acid ethyl ester] | 3.4 | 6.6 | 1.4 | – | – | –
CCOC(=O)CNC(=O)C(c1ccc(S(=O)(=O)C(F)(F)F)cc1)N(C(C)=O)C1CC1 (stereo not drawn) [Example 46, [2-(Acetyl-cyclopropyl-amino)-2-(4-trifluoromethanesulfonyl-phenyl)-acetylamino]-acetic acid ethyl ester] | > 100 | > 100 | > 100 | – | – | –
Cc1cccc(C)c1NC(=O)C(c1ccc(S(=O)(=O)C(F)(F)F)cc1)N(C(=O)c1ccccc1)C1CCCCC1 (stereo not drawn) [Example 49, N-Cyclohexyl-N-[(2,6-dimethyl-phenylcarbamoyl)-(4-trifluoromethanesulfonyl-phenyl)-methyl]-benzamide] | 10.6 | 8.3 | 9.3 | – | – | –
O=C(O)c1ccc2cc(NS(=O)(=O)C(F)(F)F)ccc2c1 [Example 90, 6-Trifluoromethanesulfonylamino-naphthalene-2-carboxylic acid] | 64 | > 20 | 35.9 | – | – | –
CCn1c(-c2ccc(C(=O)Nc3ccncc3)cc2)nc2cc(S(=O)(=O)C(F)(F)F)ccc21 [Example 37, 4-(1-Ethyl-5-trifluoromethanesulfonyl-1H-benzoimidazol-2-yl)-N-pyridin-4-yl-benzamide] | 19 | > 20 | 20.5 | – | – | –
CCOC(=O)c1cc2cc(N(S(=O)(=O)C(F)(F)F)S(=O)(=O)C(F)(F)F)ccc2n1CC(=O)OC(C)(C)C [Example 99, 1-tert-Butoxycarbonylmethyl-5-(N,N-ditrifluoromethanesulfonyl)amino-1H-indole-2-carboxylic acid ethyl ester] | 7 | 4.8 | 27.5 | – | – | –
Cc1cc2cc(NS(=O)(=O)C(F)(F)F)ccc2n1CC(=O)Nc1cccc(C(=O)O)c1 [Example 86, 3-[2-(2-Methyl-5-trifluoromethanesulfonylamino-indol-1-yl)-acetylamino]-benzoic acid] | > 100 | > 20 | > 20 | – | – | –
O=C(O)c1cccc(NC(=O)c2cc3cc(NS(=O)(=O)C(F)(F)F)ccc3[nH]2)c1 [Example 83, 3-[(5-Trifluoromethanesulfonylamino-1H-indole-2-carbonyl)-amino]-benzoic acid] | 58.5 | > 20 | 8.4 | – | – | –
CCCCN(C(=O)c1ccccc1)C(C(=O)NCC(=O)OC)c1ccc(S(=O)(=O)C(F)(F)F)cc1 (stereo not drawn) [Example 43, [2-(Benzoyl-butyl-amino)-2-(4-trifluoromethanesulfonyl-phenyl)-acetylamino]-acetic acid methyl ester] | 74.6 | > 20 | 53.9 | – | – | –
Cc1cc2cc(NS(=O)(=O)C(F)(F)F)ccc2n1CC(=O)OC(C)(C)C [Example 88, (2-Methyl-5-trifluoromethanesulfonylamino-indol-1-yl)-acetic acid tert-butyl ester] | 31.4 | > 20 | 8.2 | – | – | –
O=[N+]([O-])c1cc(S(=O)(=O)C(F)(F)F)ccc1Oc1ccc(S(=O)(=O)c2ccc(Oc3ccc(S(=O)(=O)C(F)(F)F)cc3[N+](=O)[O-])cc2)cc1 [Example 63, Bis-{[4-(2-nitro-4-trifluoromethanesulfonyl)-phenoxy]-phenyl}sulfone] | – | – | – | 0.4 | 0.7 | 2.4
O=C(O)COc1ccc(S(=O)(=O)c2ccc(Oc3ccc(S(=O)(=O)C(F)(F)F)cc3[N+](=O)[O-])cc2)cc1 [Example 52, {4-[4-(2-Nitro-4-trifluoromethanesulfonyl-phenoxy)-benzenesulfonyl]-phenoxy}-acetic acid] | 8 | > 20 | 64.5 | – | – | –
CCOC(=O)c1cc2cc(NS(=O)(=O)C(F)(F)F)ccc2n1CC(=O)OC(C)(C)C [Example 94, 1-tert-Butoxycarbonylmethyl-5-trifluoromethanesulfonylamino-1H-indole-2-carboxylic acid ethyl ester] | 1.5 | 12 | 4.2 | – | – | –
CCn1c(-c2ccc(C(=O)O)cc2)nc2cc(S(=O)(=O)C(F)(F)F)ccc21 [Example 36, 4-(1-Ethyl-5-trifluoromethanesulfonyl-1H-benzoimidazol-2-yl)-benzoic acid] | 58 | > 20 | 61.2 | – | – | –
O=C(Cc1ccc(CC(=O)Nc2ccc(S(=O)(=O)C(F)(F)F)cc2)cc1)Nc1ccc(S(=O)(=O)C(F)(F)F)cc1 [Example 34, N-(4-Trifluoromethanesulfonyl-phenyl)-2-{4-[(4-trifluoromethanesulfonyl-phenylcarbamoyl)-methyl]-phenyl}-acetamide] | 2.3 | 3.9 | 9.1 | – | – | –
CCOC(=O)CNC(=O)C(c1ccc(S(=O)(=O)C(F)(F)F)cc1)N(C(C)=O)C1CCCCC1 (stereo not drawn) [Example 51, [2-(Acetyl-cyclohexyl-amino)-2-(4-trifluoromethanesulfonyl-phenyl)-acetylamino]-acetic acid ethyl ester] | > 100 | > 100 | > 100 | – | – | –
O=C(O)c1ccc2cc(CN(Cc3ccc4cc(C(=O)O)ccc4c3)S(=O)(=O)C(F)(F)F)ccc2c1 [Example 91, N,N-Bis[(6-carboxyl-naphthalen-2-yl)methyl]trifluoromethanesulfonamide] | 25.9 | > 20 | > 20 | – | – | –
CN(Cc1ccc2cc(C(=O)Nc3cccc(C(=O)O)c3)ccc2c1)S(=O)(=O)C(F)(F)F [Example 93, 3-({6-[(Methyl-trifluoromethanesulfonyl-amino)-methyl]-naphthalene-2-carbonyl}-amino)-benzoic acid] | 15.8 | 15.9 | 7.4 | – | – | –
